US9266868B2, “Crystalline form of rivaroxaban dihydrate” (SANDOZ AG, priority 2010, dated 2016)

How the values were obtained:
[1] = cited from earlier work; for solubility (in words): WO 2007/039132, CHMP assessment report EMEA/H/C/000944
[2] = Polymorphic stability of Rivaroxaban dihydrate on storage (infrared spectroscopy); type: physicochemical; conditions: about 25° C., relative humidity of about 76%, 6 weeks
Method: Infrared spectra (IR) were collected on a MKII Golden Gate™ Single Reflection Diamond ATR (attenuated total reflection) cell with a Bruker Tensor 27 FTIR spectrometer with 4 cm-1 resolution at ambient conditions. To collect a spectrum a spatula tip of a sample was applied to the surface of the diamond in powder form. Then the sample was pressed onto the diamond with a sapphire anvil and the spectrum was recorded. A spectrum of the clean diamond was used as background spectrum. A typical precision of the wavenumber values is in the range of about ±2 cm-1. Thus, an infrared peak that appears at 1716 cm-1 can appear between 1714 and 1718 cm-1 on most infrared spectrometers under standard conditions. […]

[3] = Moisture desorption isotherm / exposure to low relative humidity; type: physicochemical; conditions: for relative humidity at which the dihydrate converts to an anhydrate form: 25° C., FIG. 7
Method: The moisture desorption isotherm were recorded with a SPS-11 moisture sorption analyzer (MD Messtechnik, Ulm, and D). The measurement cycle was performed by a decrease relative humidity (RH) in 10% steps. The equilibrium condition for each step was set to a mass constancy of ±0.001% over 50 min. The temperature was 25° C.±01° C.

For `O=C(NC[C@H]1CN(c2ccc(N3CCOCC3=O)cc2)C(=O)O1)c1ccc(Cl)s1` [Modification II], the “higher solubility compared to modification I” value ([1]; described in WO 2007/039132) is listed as 4 fold.

In the case of `O=C(NC[C@H]1CN(c2ccc(N3CCOCC3=O)cc2)C(=O)O1)c1ccc(Cl)s1` [Form I of Rivaroxabin, 5-Chloro-N-({(5S)-2-oxo-3-[4-(3-oxomorpholin-4-yl]phenyl)-1,3-oxazolidin-5-yl}methyl)thiophene-2-carboxamide], the “solubility (in words)” value [1] is listed as “relatively low solubility”.

With `O=C(NC[C@H]1CN(c2ccc(N3CCOCC3=O)cc2)C(=O)O1)c1ccc(Cl)s1` [crystalline dihydrate of Rivaroxaban, Rivaroxaban Dihydrate] the “polymorphic stability on storage” value ([2]; listed as Rivaroxaban Dihydrate) was “polymorphic stable”, the “polymorphic stability on storage” value ([2]; listed as crystalline dihydrate) was “does not convert to other polymorphic forms” and the “relative humidity at which the dihydrate converts to an anhydrate form” value [3] was “less than 20%”. For the same compound, the “relative humidity at which the dihydrate converts to an anhydrate form” value ([3]; listed as dihydrate of Rivaroxaban) was “about 25%” and the “exposure time to low relative humidity sufficient for transformation into anhydrate form” value ([3]; less than 20% relative humidity) was “about one”.

With `O=C(NC[C@H]1CN(c2ccc(N3CCOCC3=O)cc2)C(=O)O1)c1ccc(Cl)s1.O=CO` [formic acid solvate of Rivaroxaban, Rivaroxaban.Formic Acid Solvate] the “stability on storage at low relative humidity” value (less than about 20% relative humidity at 25° C.) was “stable”, the “behaviour on storage at higher relative humidity” value (relative humidity of more than 20%, e.g. 30%, 60% or 97%) was “formic acid is lost and the dihydrate of Rivaroxaban is formed” and the “behaviour on suspending in aqueous medium” value (suspended in aqueous medium) was “pure dihydrate of Rivaroxaban is formed”.

In the case of `O=C(NC[C@H]1CN(c2ccc(N3CCOCC3=O)cc2)C(=O)O1)c1ccc(Cl)s1` [amorphous form], the “solubility (in words)” value [1] is listed as “higher solubility in comparison to modification I”.
